Values of other authors as cited in patent USRE42412E1, “Materials and methods for the treatment of gastroesophageal reflux disease” (ARYx Therapeutics, Inc., priority 2000, dated 2011).

Columns and labels:
[1] = between July 1993 and December 1999
[2] = of a dose of cisapride
[3] = molecular target: 5HT4 receptors (Homo sapiens, UniProt Q13639)
5HT4 receptors, sequence (Q13639 whole entry): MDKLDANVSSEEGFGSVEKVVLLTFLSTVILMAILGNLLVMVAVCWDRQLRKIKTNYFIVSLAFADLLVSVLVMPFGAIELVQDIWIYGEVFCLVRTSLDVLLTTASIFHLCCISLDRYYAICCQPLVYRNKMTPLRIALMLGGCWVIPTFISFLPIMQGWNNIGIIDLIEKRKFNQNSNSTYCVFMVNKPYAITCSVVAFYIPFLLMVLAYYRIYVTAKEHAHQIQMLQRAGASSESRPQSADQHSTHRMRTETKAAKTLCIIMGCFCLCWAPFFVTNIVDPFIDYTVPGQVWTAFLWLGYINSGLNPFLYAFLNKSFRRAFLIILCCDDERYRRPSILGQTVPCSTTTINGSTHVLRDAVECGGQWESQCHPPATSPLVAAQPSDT

## COc1cc(N)c(Cl)cc1C(=O)NC1CCN(CCCOc2ccc(F)cc2)CC1OC (stereo not shown) [cisapride]
[1]
  deaths reported: 80
[1]; ventricular tachycardia, ventricular fibrillation, torsades de pointes, QT prolongation
  serious cardiac arrhythmias reportedly associated: at least 341
[2]
  fraction of dose metabolized by oxidative N-dealkylation at the piperidine nitrogen or aromatic hydroxylation: More than 90%
[3]
  ligand potency at 5HT4 receptors: potent ligand
